The record followed here is patent US11358952B2, “Substituted 4-aminoisoindoline-1,3-dione compounds, compositions thereof, and methods of treatment therewith” (Celgene Corporation, priority 2018, dated 2022).

Structures are written as SMILES.

For this experiment, the system named is SU-DHL-4 cell line. In words: SU-DHL-4 cell proliferation assay (Cell Titer-Glo viability). It is filed as cell-based. The conditions noted are these: Homo sapiens; cell viability IC50 activity level, DLBCL cell line SU-DHL-4, 120 hours post-treatment; read-out: SU-DHL-4 Act. In a few lines:
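SU-DHL-4 cells (500/well, RPMI-1640 + 10% FBS) exposed to 20-point compound dilutions (0.5 nM–10 μM, 0.1% DMSO) for 120 h at 37°C, 5% CO2. Viability measured by Cell Titer-Glo luminescence at t0 and at 120 h. IC50 is the concentration giving 50% of DMSO control, from a four-parameter logistic fit.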
A general note: In ATP-based viability assays light output follows the ATP content of the culture.
For the compound `CCS(=O)(=O)N1CCN(Cc2ccc(CNc3cccc4c3C(=O)N(C3CCC(=O)NC3=O)C4=O)cc2F)CC1` (stereo not drawn) [Cpd 161, 2-(2,6-dioxopiperidin-3-yl)-4-(4-((4-(ethylsulfonyl)piperazin-1-yl)methyl)-3-fluorobenzylamino)isoindoline-1,3-dione], the IC50 is less than 200 nM.
As for `O=C1CCC(N2C(=O)c3cccc(NCc4ccc(CN5CCC(c6ccccn6)CC5)cc4)c3C2=O)C(=O)N1` (stereo not drawn) [Cpd 31, 2-(2,6-dioxopiperidin-3-yl)-4-(4-((4-(pyridin-2-yl)piperidin-1-yl)methyl)benzylamino)isoindoline-1,3-dione], the IC50 lay in the range of 200 to 500 nM.
As for `Cc1cc(CNc2cccc3c2C(=O)N(C2CCC(=O)NC2=O)C3=O)ccc1CN1CC(Oc2ccc(C#N)cc2)C1` (stereo not drawn) [Cpd 83, 4-(1-(4-((2-(2,6-dioxopiperidin-3-yl)-1,3-dioxoisoindolin-4-ylamino)methyl)-2-methylbenzyl)azetidin-3-yloxy)benzonitrile], the figure is less than 200 nM.
The value for `O=C1CCC(N2C(=O)c3cccc(NCc4ccc(CN5CCN(c6ccc(F)cc6F)CC5)cc4)c3C2=O)C(=O)N1` (stereo not drawn) [Cpd 1, 4-(4-((4-(2,4-difluorophenyl)piperazin-1-yl)methyl)benzylamino)-2-(2,6-dioxopiperidin-3-yl)isoindoline-1,3-dione] was 501 to 750 nM; that for `Cc1cc(C#N)ccc1N1CCN(Cc2ccc(CNc3cccc4c3C(=O)N(C3CCC(=O)NC3=O)C4=O)cc2)[C@H](C)C1` (stereo partly drawn) [Cpd 67, 4-((3R)-4-(4-((2-(2,6-dioxopiperidin-3-yl)-1,3-dioxoisoindolin-4-ylamino)methyl)benzyl)-3-methylpiperazin-1-yl)-3-methylbenzonitrile] was less than 200 nM.
In the case of `Cc1cc(CNc2cccc3c2C(=O)N(C2CCC(=O)NC2=O)C3=O)ccc1CN1CCC(C)(C)CC1` (stereo not drawn) [Cpd 42, 4-(4-((4,4-dimethylpiperidin-1-yl)methyl)-3-methylbenzylamino)-2-(2,6-dioxopiperidin-3-yl)isoindoline-1,3-dione], the IC50 was less than 200 nM.
Consider `O=C1CCC(N2C(=O)c3cccc(NCc4ccc(CN5Cc6ccccc6C5)cc4)c3C2=O)C(=O)N1` (stereo not drawn) [Cpd 163, 2-(2,6-dioxopiperidin-3-yl)-4-(4-(isoindolin-2-ylmethyl)benzylamino)isoindoline-1,3-dione], for which the IC50 is less than 200 nM.
As to `CC(N1CCN(Cc2ccc(CNc3cccc4c3C(=O)N(C3CCC(=O)NC3=O)C4=O)cc2)CC1)C(F)(F)F` (stereo not drawn) [Cpd 71, 2-(2,6-dioxopiperidin-3-yl)-4-(4-((4-(1,1,1,-trifluoropropan-2-yl)piperazin-1-yl)methyl)benzylamino)isoindoline-1,3-dione], the IC50 is less than 200 nM.
Consider `O=C1CC[C@@H](N2C(=O)c3cccc(NCc4ccc(CN5CC(N6CCOCC6)C5)cc4F)c3C2=O)C(=O)N1` [Cpd 209, (R)-2-(2,6-dioxopiperidin-3-yl)-4-(2-fluoro-4-((3-morpholinoazetidin-1-yl)methyl)benzylamino)isoindoline-1,3-dione], for which the IC50 was less than 200 nM.
As for `O=C1CCC(N2C(=O)c3cccc(NCc4ccc(CN5CC6(COC6)C5)cc4F)c3C2=O)C(=O)N1` (stereo not drawn) [Cpd 226, 4-(4-(2-oxa-6-azaspiro[3.3]heptan-6-ylmethyl)-2-fluorobenzylamino)-2-(2,6-dioxopiperidin-3-yl)isoindoline-1,3-dione], the figure is 200 to 500 nM; as for `Cc1cc(CNc2cccc3c2C(=O)N(C2CCC(=O)NC2=O)C3=O)ccc1CN1CCC2(CC1)CC2` (stereo not drawn) [Cpd 44, 4-(4-(6-azaspiro[2.5]octan-6-ylmethyl)-3-methylbenzylamino)-2-(2,6-dioxopiperidin-3-yl)isoindoline-1,3-dione], less than 200 nM.
As for `CC1(C)COCCN1C1CN(Cc2ccc(CNc3cccc4c3C(=O)N(C3CCC(=O)NC3=O)C4=O)cc2)C1` (stereo not drawn) [Cpd 239, 4-(4-((3-(3,3-dimethylmorpholino)azetidin-1-yl)methyl)benzylamino)-2-(2,6-dioxopiperidin-3-yl)isoindoline-1,3-dione], the figure is 501 to 750 nM; as for `CC(C)(C)OC1CCN(Cc2ccc(CNc3cccc4c3C(=O)N(C3CCC(=O)NC3=O)C4=O)cc2F)CC1` (stereo not drawn) [Cpd 146, 4-(4-((4-tert-butoxypiperidin-1-yl)methyl)-3-fluorobenzylamino)-2-(2,6-dioxopiperidin-3-yl)isoindoline-1,3-dione], less than 200 nM; as for `O=C1CCC(N2C(=O)c3cccc(NCc4ccc(CN5CC6CC(c7ccc(F)cc7)CC6C5)cc4)c3C2=O)C(=O)N1` [Cpd 64, 2-(2,6-dioxopiperidin-3-yl)-4-(4-(((3aR,5r,6aS)-5-(4-fluorophenyl)hexahydrocyclopenta [c]pyrrol-2-(1H)-yl)methyl)benzylamino)isoindoline-1,3-dione], 200 to 500 nM.
On to `Cc1cc(CNc2cccc3c2C(=O)N(C2CCC(=O)NC2=O)C3=O)ccc1CN1CCN(C(C)C)CC1` (stereo not drawn) [Cpd 69, 2-(2,6-dioxopiperidin-3-yl)-4-(4-((4-isopropylpiperazin-1-yl)methyl)-3-methylbenzylamino)isoindoline-1,3-dione], for which the IC50 was less than 200 nM.
As for `CCS(=O)(=O)C1CCN(Cc2ccc(CNc3cccc4c3C(=O)N(C3CCC(=O)NC3=O)C4=O)c(F)c2)CC1` (stereo not drawn) [Cpd 173], the figure is less than 200 nM.
As for `O=C1CCC(N2C(=O)c3cccc(NCc4ccc(CN5CCC(N6CCCC6=O)CC5)cc4F)c3C2=O)C(=O)N1` (stereo not drawn) [Cpd 170, 2-(2,6-dioxopiperidin-3-yl)-4-(2-fluoro-4-((4-(2-oxopyrrolidin-1-yl)piperidin-1-yl)methyl)benzylamino)isoindoline-1,3-dione], the figure is less than 200 nM; as for `CCOC1(C)CCN(Cc2ccc(CNc3cccc4c3C(=O)N(C3CCC(=O)NC3=O)C4=O)cc2F)CC1` (stereo not drawn) [Cpd 159, 2-(2,6-dioxopiperidin-3-yl)-4-(4-((4-ethoxy-4-methylpiperidin-1-yl)methyl)-3-fluorobenzylamino)isoindoline-1,3-dione], less than 200 nM.
The value for `NC(=O)c1ccc(N2CCN(Cc3ccc(CNc4cccc5c4C(=O)N([C@@H]4CCC(=O)NC4=O)C5=O)cc3)CC2)nc1` [Cpd 204, (R)-6-(4-(4-((2-(2,6-dioxopiperidin-3-yl)-1,3-dioxoisoindolin-4-ylamino)methyl)benzyl)piperazin-1-yl)nicotinamide] was less than 200 nM; that for `Cc1cc(CNc2cccc3c2C(=O)N(C2CCC(=O)NC2=O)C3=O)ccc1CN1CC(N2C3CCC2COC3)C1` (stereo not drawn) [Cpd 247, 4-(4-((3-(3-oxa-8-azabicyclo[3.2.1]octan-8-yl)azetidin-1-yl)methyl)-3-methylbenzylamino)-2-(2,6-dioxopiperidin-3-yl)isoindoline-1,3-dione] was less than 200 nM; that for `O=C1CCC(N2C(=O)c3cccc(NCc4ccc(CN5CCN(c6ccc(F)cc6F)CC5)c(F)c4)c3C2=O)C(=O)N1` (stereo not drawn) [Cpd 109, 4-(4-((4-(2,4-difluorophenyl)piperazin-1-yl)methyl)-3-fluorobenzylamino)-2-(2,6-dioxopiperidin-3-yl)isoindoline-1,3-dione] was less than 200 nM.
As to `CCC1(OC)CCN(Cc2ccc(CNc3cccc4c3C(=O)N(C3CCC(=O)NC3=O)C4=O)cc2F)CC1` (stereo not drawn) [Cpd 157, 2-(2,6-dioxopiperidin-3-yl)-4-(4-((4-ethyl-4-methoxypiperidin-1-yl)methyl)-3-fluorobenzylamino)isoindoline-1,3-dione], the IC50 was less than 200 nM.
The value for `NC(=O)c1cc(N2CCN(Cc3ccc(CNc4cccc5c4C(=O)N(C4CCC(=O)NC4=O)C5=O)cc3F)CC2)ccn1` (stereo not drawn) [Cpd 191, 4-(4-(4-((2-(2,6-dioxopiperidin-3-yl)-1,3-dioxoisoindolin-4-ylamino)methyl)-2-fluorobenzyl)piperazin-1-yl)picolinamide] was 501 to 750 nM.
`O=C1CCC(N2C(=O)c3cccc(NCc4ccc(CN5CCN(c6noc7ccccc67)CC5)cc4)c3C2=O)C(=O)N1` (stereo not drawn) [Cpd 187, 4-(4-((4-(benzo[d]isoxazol-3-yl)piperazin-1-yl)methyl)benzylamino)-2-(2,6-dioxopiperidin-3-yl)isoindoline-1,3-dione]: the IC50 was 200 to 500 nM.
The value for `CCOC1(C)CCN(Cc2ccc(CNc3cccc4c3C(=O)N(C3CCC(=O)NC3=O)C4=O)c(F)c2)CC1` (stereo not drawn) [Cpd 158, 2-(2,6-dioxopiperidin-3-yl)-4-(4-((4-ethoxy-4-methylpiperidin-1-yl)methyl)-2-fluorobenzylamino)isoindoline-1,3-dione] was less than 200 nM.
As for `Cc1cc(C#N)cc(F)c1N1CCN(Cc2ccc(CNc3cccc4c3C(=O)N(C3CCC(=O)NC3=O)C4=O)cc2)CC1` (stereo not drawn) [Cpd 27, 4-(4-(4-((2-(2,6-dioxopiperidin-3-yl)-1,3-dioxoisoindolin-4-ylamino)methyl)benzyl)piperazin-1-yl)-3-fluoro-5-methylbenzonitrile], the figure is 200 to 500 nM.
For the compound `Cc1cc(CNc2cccc3c2C(=O)N(C2CCC(=O)NC2=O)C3=O)ccc1CN1CC(c2cccnc2)C1` (stereo not drawn) [Cpd 80, 2-(2,6-dioxopiperidin-3-yl)-4-(3-methyl-4-((3-(pyridin-3-yl)azetidin-1-yl)methyl)benzylamino)isoindoline-1,3-dione], the IC50 is less than 200 nM.
Take `O=C1CCC(N2C(=O)c3cccc(NCc4ccc(CN5CC(c6ccccn6)C5)cc4)c3C2=O)C(=O)N1` (stereo not drawn) [Cpd 16, 2-(2,6-dioxopiperidin-3-yl)-4-(4-((3-(pyridin-2-yl)azetidin-1-yl)methyl)benzylamino)isoindoline-1,3-dione]: the IC50 is less than 200 nM.
With `O=C1CCC(N2C(=O)c3cccc(NCc4ccc(CN5CC(c6ccccn6)C5)cc4F)c3C2=O)C(=O)N1` (stereo not drawn) [Cpd 165, 2-(2,6-dioxopiperidin-3-yl)-4-(2-fluoro-4-((3-(pyridin-2-yl)azetidin-1-yl)methyl)benzylamino)isoindoline-1,3-dione], the IC50 is less than 200 nM.
As for `CC1(C)CCC2(CCN(Cc3ccc(CNc4cccc5c4C(=O)N(C4CCC(=O)NC4=O)C5=O)cc3F)CC2)O1` (stereo not drawn) [Cpd 148, 4-(4-((2,2-dimethyl-1-oxa-8-azaspiro[4.5]decan-8-yl)methyl)-3-fluorobenzylamino)-2-(2,6-dioxopiperidin-3-yl)isoindoline-1,3-dione], the figure is less than 200 nM.
